Results as given in article PMC7397262, “Design, Synthesis and Biological Evaluation of Novel Triazole N-acylhydrazone Hybrids for Alzheimer’s Disease” (Molecules, 2020).

Legend:
SH-SY5Y cells [1] = test: Toxicity in neuronal SH-SY5Y cells, MTT assay; format: cell-based; settings: for toxic effects: 24 h, at 80 μM; for IC50: Homo sapiens, read-out: IC50 (concentration resulting in 50% inhibition of neuronal viability), 24 h, 2.5-80 μM
Experimental: […]. Human neuronal SH-SY5Y cells were routinely grown in Dulbecco’s modified Eagle’s Medium supplemented with 10% fetal bovine serum, 2 mM L-glutamine, 50 U/mL penicillin and 50 µg/mL streptomycin at 37 °C in a humidified incubator with 5 % CO2.
SH-SY5Y cells were seeded in a 96-well plate at 2 × 10^4 cells/well, incubated for 24 h and then treated with the compounds for 24 h. Cell viability, in terms of mitochondrial metabolic function, was evaluated by 3-(4,5-dimethylthiazol-2-yl)-2,5-diphenyltetrazolium bromide (MTT) test, as previously described.

SH-SY5Y cells [2] = test: ROS formation induced by t-BOOH in SH-SY5Y cells, H2DCF-DA probe; format: cell-based, human; design: key to Direct Antioxidant Activity in SH-SY5Y Cells (percentage inhibition of ROS formation induced by t-BOOH): In: inactive; settings: for inhibition at 10 µM: Homo sapiens, SH-SY5Y, chronic treatment 24 h with compound 10 μM, then t-BOOH 100 μM for 30 min, read-out: Indirect Antioxidant Activity in SH-SY5Y Cells (percentage inhibition of ROS formation induced by t-BOOH); for Direct Antioxidant Activity in SH-SY5Y Cells (percentage inhibition of ROS formation induced by t-BOOH): simultaneous treatment 30 min, compound 10 µM and t-BOOH 100 μM
Experimental: In parallel, we evaluated the antioxidant activity of the compounds not associated with toxicity (Figure 5) against the ROS formation induced by t-BOOH in SH-SY5Y cells. To appraise the direct and indirect antioxidant activity, the SH-SY5Y cells were simultaneously treated for 30 min with 3a, 3b and 3e (10 µM) and t-BOOH (100 µM) or chronically treated for 24 h (the time necessary to activate the endogenous antioxidant system) with 3a, 3b and 3e (10 µM) and then exposed to t-BOOH (100 µM) for 30 min, respectively. Then, the intracellular ROS formation was detected by using the fluorescent probe 2′,7′-dichlorodihydrofluorescein diacetate (H2DCF-DA).
(§1) Human neuronal SH-SY5Y cells were routinely grown in Dulbecco’s modified Eagle’s Medium supplemented with 10% fetal bovine serum, 2 mM L-glutamine, 50 U/mL penicillin and 50 µg/mL streptomycin at 37 °C in a humidified incubator with 5 % CO2.
SH-SY5Y cells were seeded in a 96-well plate at 2 × 10^4 cells/well, incubated for 24 h, and then treated with compounds for 24 h before or during the treatment of 30 min with t-BOOH. ROS formation was evaluated by using the fluorescent probe H2DCF-DA, as previously described.

SH-SY5Y cells [3] = test: Intracellular GSH levels in SH-SY5Y cells, MCB assay; format: cell-based, human; settings: 24 h, 2.5–10 μM
Experimental: Among the endogenous antioxidants in the central nervous system, glutathione (GSH) plays an important role to maintain the redox balance by directly interacting with ROS formed during the physiological metabolic processes. […] We therefore evaluated the ability of compounds 3a, 3b and 3e to modulate the intracellular GSH levels in SH-SY5Y cells, after 24 h of treatment using the fluorescent probe monochlorobimane (MCB).
as §1
SH-SY5Y cells were seeded in a black 96-well plate at 2 × 10^4 cells/well, incubated for 24 h and then treated with the compounds for 24 h. GSH levels were evaluated by using monochlorobimane, as previously described

EeAChE = target: T1, EeAChE (Electrophorus electricus, UniProt O42275); test: AChE inhibition, modified Ellman kinetic assay; format: biochemical
T1 construct: purified from Electrophorus electricus; purchased Sigma-Aldrich type V-S; host or cells: Electrophorus electricus (natural source)
Experimental: (§2) For in vitro evaluation of inhibition of EeAChE (EC3.1.1.7, type V-S, purified from Electrophorus electricus) and eqBuChE (EC 3.1.1.8, purified from equine serum, both from Sigma-Aldrich), the kinetic assay was performed according to the Ellman method modified using 96-well plates as previously described. […]. Progression curves were acquired using the Softmax PRO 5.0 software (Molecular Devices) from which the maximum hydrolysis velocity was calculated and the analysis performed with the Prism 5 software (GraphPad Inc., La Jolla, CA, USA). […]. The solvent had no detectable effect at the highest concentration used (0.2% v/v).

SH-SY5Y cells [4] = test: Neuroprotective activity against Aβ42 oligomers in SH-SY5Y cells, MTT assay; format: cell-based, human; settings: 3e 5 µM with OAβ42 10 µM, 4 h
Experimental: Given the best antioxidant profile of compound 3e we also evaluated its ability to protect the SH-SY5Y cells against the neurotoxicity elicited by Aβ42 peptide oligomers (OAβ42), soluble aggregates of Aβ peptides involved in the pathogenesis of AD.
as §1
Aβ42 peptide (AnaSpec, Fremont, CA, USA) was first dissolved in 1,1,1,3,3,3-hexafluoroisopropanol to 1 mg/mL, sonicated, incubated at room temperature for 24 h, and lyophilised to obtain an unaggregated Aβ42 peptide film that was solubilised with DMSO and stored at −20 °C until use. The aggregation of Aβ42 peptide into oligomers was performed as previously described. SH-SY5Y cells were seeded in a 96-well plate at 3 × 10^4 cells/well, incubated for 24 h, and treated with the compounds for 24 h. The cells were then treated for 4 h with 3e [5 μM] and OAβ1-42 [10 μM]. The neuroprotective activity, in terms of increase in intracellular MTT granules, was measured by MTT assay, as previously described.

eqBuChE = target: T2, eqBuChE (Equus caballus, UniProt P81908); test: BuChE inhibition, modified Ellman kinetic assay; format: biochemical
T2 construct: purified from equine serum; purchased Sigma-Aldrich; host or cells: equine serum (natural source)
Experimental: as §2

T1 sequence (O42275 24-633): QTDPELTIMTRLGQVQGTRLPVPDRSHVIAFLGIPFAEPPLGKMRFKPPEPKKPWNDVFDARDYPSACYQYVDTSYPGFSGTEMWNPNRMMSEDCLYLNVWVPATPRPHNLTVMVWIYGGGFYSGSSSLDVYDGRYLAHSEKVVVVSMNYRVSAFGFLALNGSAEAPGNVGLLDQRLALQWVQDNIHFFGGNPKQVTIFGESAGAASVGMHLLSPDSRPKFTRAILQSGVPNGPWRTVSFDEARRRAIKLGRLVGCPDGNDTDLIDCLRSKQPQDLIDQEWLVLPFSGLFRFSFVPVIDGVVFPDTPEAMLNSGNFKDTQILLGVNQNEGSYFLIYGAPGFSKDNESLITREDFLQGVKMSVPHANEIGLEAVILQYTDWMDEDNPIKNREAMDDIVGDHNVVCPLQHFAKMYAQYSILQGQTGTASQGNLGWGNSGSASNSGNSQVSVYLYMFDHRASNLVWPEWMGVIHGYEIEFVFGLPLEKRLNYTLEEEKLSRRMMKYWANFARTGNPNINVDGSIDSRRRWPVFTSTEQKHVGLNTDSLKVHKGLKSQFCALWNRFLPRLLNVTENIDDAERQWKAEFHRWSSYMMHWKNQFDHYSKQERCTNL
T2 sequence (P81908 whole entry): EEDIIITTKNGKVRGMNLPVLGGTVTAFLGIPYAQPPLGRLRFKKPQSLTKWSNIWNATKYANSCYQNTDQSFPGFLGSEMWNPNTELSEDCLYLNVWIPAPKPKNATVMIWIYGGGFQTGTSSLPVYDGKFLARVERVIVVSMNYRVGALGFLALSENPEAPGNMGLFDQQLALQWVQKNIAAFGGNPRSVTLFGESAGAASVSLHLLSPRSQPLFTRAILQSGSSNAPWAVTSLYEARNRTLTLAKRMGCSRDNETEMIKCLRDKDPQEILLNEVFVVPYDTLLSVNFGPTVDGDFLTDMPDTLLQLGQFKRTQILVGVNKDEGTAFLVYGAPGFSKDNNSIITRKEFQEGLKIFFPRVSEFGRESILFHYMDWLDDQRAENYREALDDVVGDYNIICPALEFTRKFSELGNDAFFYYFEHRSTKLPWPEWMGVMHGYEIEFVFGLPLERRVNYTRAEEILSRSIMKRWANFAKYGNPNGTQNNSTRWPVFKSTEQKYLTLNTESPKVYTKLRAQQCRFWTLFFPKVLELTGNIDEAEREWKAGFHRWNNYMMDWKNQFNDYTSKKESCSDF

COc1cc(Cn2cc(C(=O)N/N=C/c3ccc(O)cc3)nn2)ccc1O [3a, (E)-1-(4-Hydroxy-3-methoxybenzyl)-N’-(4-hydroxybenzylidene)-1H-1,2,3-triazole-4-carbohydrazide]
toxic effects (SH-SY5Y cells [1]): did not show any toxic effects
IC50 (SH-SY5Y cells [1]): > 80 µM
inhibition at 10 µM (SH-SY5Y cells [2]): 20.6%
Direct Antioxidant Activity in SH-SY5Y Cells (percentage inhibition of ROS formation induced by t-BOOH) (SH-SY5Y cells [2]): In ^d
effect on intracellular GSH levels (SH-SY5Y cells [3]): increased the GSH levels

COc1cc(Cn2cc(C(=O)N/N=C/c3cc(O)cc(O)c3)nn2)ccc1O [3b, (E)-N’-(3,5-Dihydroxybenzylidene)-1-(4-hydroxy-3-methoxybenzyl)-1H-1,2,3-triazole-4-carbohydrazide]
toxic effects (SH-SY5Y cells [1]): did not show any toxic effects
IC50 (SH-SY5Y cells [1]): > 80 µM
inhibition at 10 µM (SH-SY5Y cells [2]): 14.1%
Direct Antioxidant Activity in SH-SY5Y Cells (percentage inhibition of ROS formation induced by t-BOOH) (SH-SY5Y cells [2]): In
effect on intracellular GSH levels (SH-SY5Y cells [3]): increased the GSH levels

COc1ccc(/C=N/NC(=O)c2cn(Cc3ccc(O)c(OC)c3)nn2)cc1 [3c, (E)-1-(4-Hydroxy-3-methoxybenzyl)-N’-(4-methoxybenzylidene)-1H-1,2,3-triazole-4-carbohydrazide]
IC50 (SH-SY5Y cells [1]): 10.3 µM

COc1cc(/C=N/NC(=O)c2cn(Cc3ccc(O)c(OC)c3)nn2)cc(OC)c1 [3d, (E)-N’-(3,5-Dimethoxybenzylidene)-1-(4-hydroxy-3-methoxybenzyl)-1H-1,2,3-triazole-4-carbohydrazide]
IC50 (SH-SY5Y cells [1]): 67.7 µM

COc1cc(/C=N/NC(=O)c2cn(Cc3ccc(O)c(OC)c3)nn2)ccc1O [3e, (E)-1-(4-Hydroxy-3-methoxybenzyl)-N’-(4-hydroxy-3-methoxybenzylidene)-1H-1,2,3-triazole-4-carbo-hydrazide]
toxic effects (SH-SY5Y cells [1]): did not show any toxic effects
IC50 (SH-SY5Y cells [1]): > 80 µM
IC50 (EeAChE): 26.3 µM
inhibition at 30 µM (EeAChE; read-out: inhibition of the AChE activity at the screening concentration): > 50%
inhibition at 10 µM (SH-SY5Y cells [2]): 35.2%
effect on loss of neuronal viability induced by OAβ42 (SH-SY5Y cells [4]): significantly reduced the loss of neuronal viability
ability to inhibit BuChE (eqBuChE): no relevant activity was detected
effect on intracellular GSH levels (SH-SY5Y cells [3]): increased the GSH levels

COc1cc(Cn2cc(C(=O)N/N=C/c3ccccc3)nn2)ccc1O [3f, (E)-N’-Benzylidene-1-(4-hydroxy-3-methoxybenzyl)-1H-1,2,3-triazole-4-carbohydrazide]
IC50 (SH-SY5Y cells [1]): 63.8 µM

COc1cc(Cn2cc(C(=O)N/N=C/c3ccc(N4CCCCC4)cc3)nn2)ccc1O [3g, (E)-1-(4-Hydroxy-3-methoxybenzyl)-N’-(4-(piperidin-1-yl)benzylidene)-1H-1,2,3-triazole-4-carbohydrazide]
IC50 (SH-SY5Y cells [1]): 10.3 µM

COc1cc(Cn2cc(C(=O)N/N=C/c3ccc(Cl)cc3)nn2)ccc1O [3h, (E)-N’-(4-Chlorobenzylidene)-1-(4-hydroxy-3-methoxybenzyl)-1H-1,2,3-triazole-4-carbohydrazide]
IC50 (SH-SY5Y cells [1]): 3.02 µM

COc1cc(Cn2cc(C(=O)N/N=C/c3cccc(Cl)c3)nn2)ccc1O [3i, (E)-N’-(3-Chlorobenzylidene)-1-(4-hydroxy-3-methoxybenzyl)-1H-1,2,3-triazole-4-carbohydrazide]
IC50 (SH-SY5Y cells [1]): 10.4 µM

COc1cc(Cn2cc(C(=O)N/N=C/c3ccccc3Cl)nn2)ccc1O [3j, (E)-N’-(2-Chlorobenzylidene)-1-(4-hydroxy-3-methoxybenzyl)-1H-1,2,3-triazole-4-carbohydrazide]
IC50 (SH-SY5Y cells [1]): 28.3 µM

COc1cc(Cn2cc(C(=O)N/N=C/c3ccc(F)cc3)nn2)ccc1O [3k, (E)-N’-(4-Fluorobenzylidene)-1-(4-hydroxy-3-methoxybenzyl)-1H-1,2,3-triazole-4-carbohydrazide]
IC50 (SH-SY5Y cells [1]): 3.62 µM

COc1cc(Cn2cc(C(=O)N/N=C/c3ccccc3F)nn2)ccc1O [3l, (E)-N’-(2-Fluorobenzylidene)-1-(4-hydroxy-3-methoxybenzyl)-1H-1,2,3-triazole-4-carbohydrazide]
IC50 (SH-SY5Y cells [1]): 68.5 µM

COc1cc(Cn2cc(C(=O)N/N=C/c3cccc(F)c3)nn2)ccc1O [3m, (E)-N’-(3-Fluorobenzylidene)-1-(4-hydroxy-3-methoxybenzyl)-1H-1,2,3-triazole-4-carbohydrazide]
IC50 (SH-SY5Y cells [1]): 42.9 µM
